These results are taken from publication PMC9680484, “Synthesis, Biophysical Interaction of DNA/BSA, Equilibrium and Stopped-Flow Kinetic Studies, and Biological Evaluation of bis(2-Picolyl)amine-Based Nickel(II) Complex” (Biomimetics, 2022).

One assay deals with ct-DNA. The experiment in a line: ct-DNA electronic absorption titration. The assay is classed as binding. The following applies: phosphate buffer pH 7.2. The method, then: Electronic absorption measurements were performed with a constant concentration of ctDNA and increasing concentrations of BPA and NiBPA (Na-phosphate buffer solution, pH 7.2). […] Intrinsic fluorescence was measured with the ct-DNA solution at the excitation wavelength (ex, 330), and emission spectra were recorded at 550–700 nm after aliquot addition of BPA and NiBPA.
Absorption titration information was depicted in Figure 6 to understand the mode of interaction of complexes with ct-DNA. Increased addition of a solution of BPA to a solution of ct-DNA causes hyperchromic for the band at 264 nm with a blue shift of 5 nm (259 nm), as shown in the absorption titration spectrum (Figure 6). The band at 278 nm, on the other hand, was hypochromic with a small blue shift of 2 nm (276 nm). The presence of […] in the medium was indicated by the isosbestic point in the titration curve at 274 nm. […] The hydrogen bonds formed with the –OH and SH groups of BPA and NiBPA are caused by the presence of many accessible hydrogen binding sites in the DNA major and minor grooves. The binding constants for BPA (0.16 × 10^5 M^−1) and NiBPA (0.52 × 10^5 M^−1) are similar to those of well-known groove binding rather than classical intercalation, implying that NiBPA interacts with ct-DNA much more strongly than BPA under investigation.

The target in the next assay is BSA (Bos taurus, UniProt P02769). The experiment in a line: Stopped-flow kinetics of BSA binding. The following applies: for ΔG1: ΔGbind = RT·ln(Kd); for K2 (2nd step): irreversible step for BPA. Also noted: species or system bovine. The protocol: The kinetics of protein and DNA binding was measured using an Applied KinetAsyst SF-61DX2 stopped-flow instrument. At 25 °C, equal volumes of compounds against protein and DNA solutions were rapidly mixed in the stopped-flow instrument. The binding reactions were studied using a 10-fold excess of the ligand BPA and NiBPA under pseudo-first-order conditions. For each experimental condition, all recorded rate constants were taken into account, from which the mean values of at least three independent kinetic runs were calculated.
Because many medicines with lower cellular toxicity have a slow DNA dissociation rate, several factors, such as the strength of binding and the drug’s affinity for DNA, as well as the kinetic stability of DNA-drug adducts, may contribute to antitumor effectiveness. The stopped-flow technique was used to study in-vitro protein/DNA binding to BPA and propose a mechanism in order to obtain such information. The kinetic traces were recorded at 265 nm within 100 s (BPA) and 5 s (NiBPA), respectively, to capture the interaction process with BSA. […] In the case of ct-DNA interaction, the kinetic traces were recorded at 290 nm, and both BPA and NiBPA followed a similar pattern since kinetic traces for BPA and NiBPA were collected within 100 s, covering the entire interaction process. […] Over the concentration range of BPA and NiBPA, the study of kinetic traces performed under pseudo-first-order conditions may be fitted to two kinetic phases (Figure 7) evaluated using the following Equation (3):(3) A=a1e^−kobs1t1+a2e^−kobs2t2+A0
The interaction process involves at least two steps, and the stopped-flow records the two kinetic phases as a fast binding (rate constant kobs1) followed by a slow first-order isomerization process (rate constant kobs2). […] Both kon and koff were used to calculate the equilibrium association constants Kaff [kon/koff M^−1] and the equilibrium dissociation constants Kd [koff/kon M].
The difference between the free energy, G, of BSA molecules alone in the solution and when bound together is related to the equilibrium dissociation constant, Kd1. Equation (4) gives the binding free energy change Gbind. (4) ΔGbind=RT·ln(Kd)

Assay [1] can be described thus: MTT cytotoxicity assay, normal cells. The assay is classed as cell-based.
The subject of the next assay is E. faecalis. The experiment in a line: Antibacterial MIC/MBC, E. faecalis. The assay is classed as cell-based. More on the design: MIC: unit not given here. The note with it: Gram-positive.
Another assay concerns P. aeruginosa. The experiment in a line: Antibacterial MIC/MBC, P. aeruginosa. Also noted: MIC: unit not given here. The note with it: Gram-negative. The assay is classed as cell-based.

Structures are written as SMILES. In brackets after ≈: the same amount, converted by molar mass. Like-named read-outs stand apart in the source and are kept apart here.

Consider `c1ccc(CNCc2ccccn2)nc1` [BPA, bis(2-picolyl)amine], for which the “binding constant (ct-DNA)” value with ct-DNA was 16000 M⁻¹. Also, at BSA (BSA, 1st step, 25 °C), the “Ka1 (k1/k−1)” value was determined as 73.5 M⁻¹. Moreover, the Kd at BSA (BSA, 1st step, 25 °C, read-out: Kd1 (k−1/k1)) came to 13.6 mM. This compound had a ΔG1 on BSA (BSA, 1st step) of -2.53 kcal/mol. In addition, at BSA (BSA, 2nd step), the “K2 (irreversible 2nd step)” value stood at 0.82 M⁻¹. In addition, the “K2 (2nd step)” value on BSA (BSA, 2nd step, 25 °C) is listed as “Irreversible step with K2 = 0.82 ± 0.08 M^−1s^−1”. Moreover, the “k−2” value on BSA (BSA, 2nd step, irreversibility) is recorded as “≈ 0”. The “k−1 (1st step, first-order dissociation constant)” value at BSA (BSA, 25 °C) came to 0.17 ± 0.0 s⁻¹. Further, the kon on BSA (bovine, read-out: k1 (1st step, second-order association constant)) turned out to be 12.5 ± 1.1 M⁻¹ s⁻¹. Further, it took 237.2 ± 1.3 µg/mL (≈ 1190 µM) to reach half-maximal inhibition in assay [1] (Homo sapiens, WI-38, 24 h) (IC50). Moreover, the MBC against E. faecalis and with P. aeruginosa was 0 µg/mL in each case.

As to `O.[Cl][Ni][Cl].c1ccc(CNCc2ccccn2)nc1` [NiBPA, [(BPA)NiCl2(H2O)]], the “binding constant (ct-DNA)” value in the assay on ct-DNA worked out at 52000 M⁻¹. Besides, at BSA (BSA, 1st step, 25 °C), the “Ka1 (k1/k−1)” value amounted to 7.3 M⁻¹. The same compound displayed a ΔG1 at BSA (BSA, 1st step) of -1.22 kcal/mol. The ΔG2 on BSA (BSA, 2nd step) was −8.3 kJmol^−1. Besides, at BSA (BSA, 2nd step, 25 °C), the “k−2” value was 620 ± 6 10^−3s^−1 and the “K2 (2nd step)” value came out at 2.0 ± 0.2 M⁻¹ s⁻¹. Besides, on BSA (BSA, 2nd step, 25 °C, listed as 1), the Ka2 amounted to 3.2 M⁻¹. Also, on BSA (BSA, 25 °C), the “k1 (1st step, second-order association constant)” value came out at 53.6 ± 9.0 M⁻¹ s⁻¹ and the “k−1 (1st step, first-order dissociation constant)” value amounted to 7.3 ± 0.3 s⁻¹. At BSA (BSA, overall), the “Ka (overall binding)” value came to 30.3 M⁻¹ and the “ΔG (overall reaction)” value is recorded as −8.4 kJmol^−1. For the same compound, the Kd at BSA (BSA, overall, read-out: Kd (overall binding)) stood at 34 mM. Also, the Kd on BSA (BSA, overall, read-out: Kd (overall reaction)) amounted to 32.3 mM. In assay [1] (normal liver (Wi38) cells, MTT, 24 h), the IC50 – broadly, the concentration that inhibits the measured activity by half – was found to be 120.0 ± 0.5 µg/mL. In addition, in the assay on E. faecalis, the MBC (in general, the smallest concentration meeting the test's criterion for killing) amounted to 80.0 µg/mL and the MIC is recorded as 43.0. In the assay with P. aeruginosa, this compound had an MBC of 70.0 µg/mL and an MIC of 35.0.
